Patent US12459941B2, “Tricyclic IRAK inhibitors” (Rigel Pharmaceuticals, Inc., priority 2022, dated 2025)

Legend:
IRAK4 = target: T1, IRAK4 (Homo sapiens, UniProt Q9NWZ3); experiment: IRAK4 ADP-Glo assay; format: biochemical; details: 8 pt curve; read-out: IRAK4 ADP-Glo Kinase, 8 pt
T1 construct: purchased Signalchem I12-10G-20
T1 sequence (Q9NWZ3 1-460): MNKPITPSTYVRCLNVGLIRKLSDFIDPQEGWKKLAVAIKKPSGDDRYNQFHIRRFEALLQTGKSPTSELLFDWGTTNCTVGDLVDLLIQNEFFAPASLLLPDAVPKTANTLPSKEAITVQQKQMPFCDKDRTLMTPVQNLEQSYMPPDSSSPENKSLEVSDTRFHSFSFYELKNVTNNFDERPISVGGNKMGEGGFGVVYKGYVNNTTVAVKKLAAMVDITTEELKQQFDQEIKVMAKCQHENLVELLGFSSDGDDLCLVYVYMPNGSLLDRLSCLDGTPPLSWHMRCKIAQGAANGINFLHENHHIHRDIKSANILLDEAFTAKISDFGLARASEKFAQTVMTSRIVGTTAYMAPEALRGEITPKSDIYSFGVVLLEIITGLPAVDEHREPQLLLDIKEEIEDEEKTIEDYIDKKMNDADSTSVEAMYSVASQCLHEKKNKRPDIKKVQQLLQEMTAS
Method: IRAK4 Kinase Enzyme (Signalchem, I12-10G-20); 0.1M DTT (Signalchem, D86-09B); MBP Substrate (Signalchem, M42-51N); ADP Glo (Promega, V9101); 1M MgCl2 (Teknova, M03304); 1M Tris-HCl pH7.4 (Teknova, T1074); BSA (Sigma (A3059); Distilled H2O
Wallac Victor2 1420 Multilabel Counter
The ADP-Glo™ reagents were thawed at ambient temperature. The Kinase Detection Reagent was prepared by mixing kinase detection buffer with the lyophilized kinase detection substrate, and set aside.
A stock volume of 5× Reaction Kinase Buffer was made with a final concentration of 100 mM MgCl2, 200 mM Tris-HCl, and 0.5 mg/ml of BSA, in distilled H2O with a final pH7.4. A 2× working stock volume of Reaction Kinase Buffer was made containing a final concentration of […].
The components of IRAK4 Enzyme were thawed on ice. Diluted IRAK4 in 1× Kinase Reaction Buffer (diluted from 2× buffer) was prepared at […]. A […] working stock ATP Assay Solution was prepared in 1× Kinase Reaction Buffer (diluted from 2× buffer).
The compound was diluted in DMSO from 250 µM in 4-fold series dilutions for 8 points. Then diluted 1:5 in 2× Reaction Buffer in a 96 well plate. 1.01 was transferred to a 384 well plate in duplicate. […] 1 μl of 1 mg/ml stock solution of MBP substrate was added NOTE: MBP can be combined with ATP mix with equal volume and then added at 2 d/well. Final reaction volume was 5 μl.
The plate was centrifuged and the reaction mixture was incubated at room temperature for 60 minutes or at 30° C. for 30 minutes.
The reaction was terminated and the remaining ATP was depleted by adding 5 μl of ADP-Glo™ Reagent. The 384-well plate was centrifuged and then the reaction mixture was incubated for another 40 minutes at ambient temperature.
10 μl of the Kinase Detection Reagent was added. The plate was centrifuged and then the reaction mixture was incubated for another 30 minutes at ambient temperature.
The 384-well reaction plate was read using the WALLAC plate reader (Luminescence 0.1s).

IRAK1 = IRAK1 (Homo sapiens, UniProt P51617); experiment: IRAK1 ADP-Glo Kinase assay; format: biochemical; details: 8 pt curve
TNFa [1] = experiment: TNFa ELISA, dendritic cells, Gardiquimod stimulated; format: cell-based; details: Homo sapiens, Dendritic cell, 10 pt curve
TNFa [2] = experiment: TNFa ELISA, PBMC, Resiquimod (R848) stimulated; format: cell-based; details: 10 pt curve

Chain of IRAK1 (P51617 whole entry): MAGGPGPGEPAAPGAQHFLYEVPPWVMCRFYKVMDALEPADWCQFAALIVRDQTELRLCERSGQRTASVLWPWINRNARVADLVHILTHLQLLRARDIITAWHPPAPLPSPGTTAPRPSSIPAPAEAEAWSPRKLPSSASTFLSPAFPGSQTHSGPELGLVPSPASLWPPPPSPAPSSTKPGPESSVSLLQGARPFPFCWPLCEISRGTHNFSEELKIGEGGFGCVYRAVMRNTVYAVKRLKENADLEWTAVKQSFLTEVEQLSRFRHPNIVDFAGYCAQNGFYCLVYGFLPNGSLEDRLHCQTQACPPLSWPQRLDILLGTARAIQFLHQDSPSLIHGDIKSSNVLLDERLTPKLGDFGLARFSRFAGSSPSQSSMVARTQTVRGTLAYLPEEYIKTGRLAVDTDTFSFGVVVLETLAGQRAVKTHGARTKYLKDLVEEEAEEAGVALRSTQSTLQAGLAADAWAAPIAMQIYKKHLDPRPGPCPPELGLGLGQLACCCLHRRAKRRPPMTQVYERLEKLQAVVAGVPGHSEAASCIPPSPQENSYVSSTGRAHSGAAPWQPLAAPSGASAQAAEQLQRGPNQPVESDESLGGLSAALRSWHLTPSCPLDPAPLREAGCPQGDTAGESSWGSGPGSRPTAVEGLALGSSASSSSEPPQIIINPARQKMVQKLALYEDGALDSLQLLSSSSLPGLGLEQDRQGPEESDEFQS

Row | SMILES | IC50 (IRAK4) | IC50 (IRAK1) | EC50 (TNFa [1]) | EC50 (TNFa [2])
1 | O=C1CC[C@@H](COc2nccc3cc4c(=O)[nH]cc(C5CNC5)c4cc23)N1 [I-23, (S)-4-(azetidin-3-yl)-6-((5-oxopyrrolidin-2-yl)methoxy)pyrido[3,4-g]isoquinolin-1(2H)-one] | 2400 nM |  |  | 
2 | O=C1CC[C@@H](COc2nccc3cc4c(=O)[nH]cc(-c5cn[nH]c5)c4cc23)N1 [I-33, (S)-6-((5-oxopyrrolidin-2-yl)methoxy)-4-(1H-pyrazol-4-yl)pyrido[3,4-g]isoquinolin-1(2H)-one] | 28 nM | 3010 nM | 25600 nM | 
3 | CC[C@@H]1[C@H](F)C(=O)N[C@@H]1COc1nccc2cc3c(=O)[nH]cc(C)c3cc12 [I-45, 6-(((2S,3S,4S)-3-ethyl-4-fluoro-5-oxopyrrolidin-2-yl)methoxy)-4-methylpyrido[3,4-g]isoquinolin-1(2H)-one] | 5.5 nM | 18 nM | 3.4 nM | 2.7 nM
4 | CC(O)c1c[nH]c(=O)c2cc3ccnc(OC[C@@H]4CCC(=O)N4)c3cc12 (stereo partly drawn) [I-36, 4-(1-hydroxyethyl)-6-(((S)-5-oxopyrrolidin-2-yl)methoxy)pyrido[3,4-g]isoquinolin-1(2H)-one] | 62.7 nM | 11300 nM | 63800 nM | 1030 nM
5 | C#Cc1c[nH]c(=O)c2cc3ccnc(OC[C@@H]4CCC(=O)N4)c3cc12 [I-18, (S)-4-ethynyl-6-((5-oxopyrrolidin-2-yl)methoxy)pyrido[3,4-g]isoquinolin-1(2H)-one] | 14.4 nM | 12000 nM | 358 nM | 337 nM
6 | CC[C@@H]1[C@H](F)C(=O)N[C@@H]1COc1nccc2cc3c(=O)[nH]cc(I)c3cc12 [I-44, 6-(((2S,3S,4S)-3-ethyl-4-fluoro-5-oxopyrrolidin-2-yl)methoxy)-4-iodopyrido[3,4-g]isoquinolin-1(2H)-one] | 4.2 nM | 27.7 nM | 2 nM | 5.2 nM
7 | O=C1CC[C@@H](COc2nccc3cc4c(=O)[nH]cc(I)c4cc23)N1 [I-6, (S)-4-iodo-6-((5-oxopyrrolidin-2-yl)methoxy)pyrido[3,4-g]isoquinolin-1(2H)-one] | 3.1 nM |  | 45.8 nM | 32.2 nM
8 | N#Cc1c[nH]c(=O)c2cc3ccnc(OC[C@@H]4CCC(=O)N4)c3cc12 [I-16, (S)-1-oxo-6-((5-oxopyrrolidin-2-yl)methoxy)-1,2-dihydropyrido[3,4-g]isoquinoline-4-carbonitrile] | 22.2 nM | 10300 nM |  | 1660 nM
9 | NC(=O)c1c[nH]c(=O)c2cc3ccnc(OC[C@@H]4CCC(=O)N4)c3cc12 [I-27, (S)-1-oxo-6-((5-oxopyrrolidin-2-yl)methoxy)-1,2-dihydropyrido[3,4-g]isoquinoline-4-carboxamide] | 988 nM |  |  | 
10 | CC(C)(N)c1c[nH]c(=O)c2cc3ccnc(OC[C@@H]4CCC(=O)N4)c3cc12 [I-26, (S)-4-(2-aminopropan-2-yl)-6-((5-oxopyrrolidin-2-yl)methoxy)pyrido[3,4-g]isoquinolin-1(2H)-one] | 5350 nM |  |  | 1780 nM
11 | CC[C@@H]1[C@H](F)C(=O)N[C@@H]1COc1nccc2cc3c(=O)[nH]cc(C(C)C)c3cc12 [I-51, 6-(((2S,3S,4S)-3-ethyl-4-fluoro-5-oxopyrrolidin-2-yl)methoxy)-4-isopropylpyrido[3,4-g]isoquinolin-1(2H)-one] | 10 nM | 77.4 nM |  | 4 nM
12 | CC[C@@H]1[C@H](F)C(=O)N[C@@H]1COc1nccc2cc3c(=O)[nH]cc(C#N)c3cc12 [I-47, 6-(((2S,3S,4S)-3-ethyl-4-fluoro-5-oxopyrrolidin-2-yl)methoxy)-1-oxo-1,2-dihydropyrido[3,4-g]isoquinoline-4-carbonitrile] | 35 nM | 531 nM | 78.2 nM | 78.8 nM
13 | C=Cc1c[nH]c(=O)c2cc3ccnc(OC[C@@H]4CCC(=O)N4)c3cc12 [I-7, (S)-6-((5-oxopyrrolidin-2-yl)methoxy)-4-vinylpyrido[3,4-g]isoquinolin-1(2H)-one] | 4.8 nM | 4280 nM | 215 nM | 192 nM
14 | CCCc1c[nH]c(=O)c2cc3ccnc(OC[C@@H]4CCC(=O)N4)c3cc12 [I-10, (S)-6-((5-oxopyrrolidin-2-yl)methoxy)-4-propylpyrido[3,4-g]isoquinolin-1(2H)-one] | 74.2 nM | 11100 nM | 613 nM | 369 nM
15 | CC[C@@H]1[C@H](F)C(=O)N[C@@H]1COc1nccc2cc3c(=O)[nH]ccc3cc12 [I-46, 6-(((2S,3S,4S)-3-ethyl-4-fluoro-5-oxopyrrolidin-2-yl)methoxy)pyrido[3,4-g]isoquinolin-1(2H)-one] | 6.5 nM | 1120 nM | 239 nM | 295 nM
16 | O=C1CC[C@@H](COc2nccc3cc4c(=O)[nH]cc(C5CCC5)c4cc23)N1 [I-12, (S)-4-cyclobutyl-6-((5-oxopyrrolidin-2-yl)methoxy)pyrido[3,4-g]isoquinolin-1(2H)-one] | 39.6 nM | 7860 nM | 11700 nM | 203 nM
17 | CC(C)Cc1c[nH]c(=O)c2cc3ccnc(OC[C@@H]4CCC(=O)N4)c3cc12 [I-50, (S)-4-isobutyl-6-((5-oxopyrrolidin-2-yl)methoxy)pyrido[3,4-g]isoquinolin-1(2H)-one] | 2190 nM |  |  | 
18 | O=C1CC[C@@H](COc2nccc3cc4c(=O)[nH]ccc4cc23)N1 [I-5, (S)-6-((5-oxopyrrolidin-2-yl)methoxy)pyrido[3,4-g]isoquinolin-1(2H)-one] | 160 nM |  | 5680 nM | 4390 nM
19 | CS(=O)(=O)c1c[nH]c(=O)c2cc3ccnc(OC[C@@H]4CCC(=O)N4)c3cc12 [I-48, (S)-4-(methylsulfonyl)-6-((5-oxopyrrolidin-2-yl)methoxy)pyrido[3,4-g]isoquinolin-1(2H)-one] | 13800 nM |  |  | 10100 nM
20 | C=CCc1c[nH]c(=O)c2cc3ccnc(OC[C@@H]4CCC(=O)N4)c3cc12 [I-9, (S)-4-allyl-6-((5-oxopyrrolidin-2-yl)methoxy)pyrido[3,4-g]isoquinolin-1(2H)-one] | 14.5 nM | 6860 nM | 419 nM | 376 nM
21 | C#CC(C)(O)c1c[nH]c(=O)c2cc3ccnc(OC[C@@H]4CCC(=O)N4)c3cc12 (stereo partly drawn) [I-37, 4-(2-hydroxybut-3-yn-2-yl)-6-(((S)-5-oxopyrrolidin-2-yl)methoxy)pyrido[3,4-g]isoquinolin-1(2H)-one] | 1210 nM | 11000 nM | 44000 nM | 
22 | C=C(C)c1c[nH]c(=O)c2cc3ccnc(OC[C@@H]4CCC(=O)N4)c3cc12 [I-11, (S)-6-((5-oxopyrrolidin-2-yl)methoxy)-4-(prop-1-en-2-yl)pyrido[3,4-g]isoquinolin-1(2H)-one] | 7.8 nM | 6490 nM |  | 75 nM
23 | CC(=O)c1c[nH]c(=O)c2cc3ccnc(OC[C@@H]4CCC(=O)N4)c3cc12 [I-28, (S)-4-acetyl-6-((5-oxopyrrolidin-2-yl)methoxy)pyrido[3,4-g]isoquinolin-1(2H)-one] | 27.3 nM |  |  | 5650 nM
24 | NC(=O)Cc1c[nH]c(=O)c2cc3ccnc(OC[C@@H]4CCC(=O)N4)c3cc12 [I-41, (S)-2-(1-oxo-6-((5-oxopyrrolidin-2-yl)methoxy)-1,2-dihydropyrido[3,4-g]isoquinolin-4-yl)acetamide] | 2540 nM |  |  | 
25 | CC(C)(O)C#Cc1c[nH]c(=O)c2cc3ccnc(OC[C@@H]4CCC(=O)N4)c3cc12 [I-49, (S)-4-(3-hydroxy-3-methylbut-1-yn-1-yl)-6-((5-oxopyrrolidin-2-yl)methoxy)pyrido[3,4-g]isoquinolin-1(2H)-one] |  |  |  | 1440 nM
